SMILES strings stand for the structures.

For this assay, the target named is T1, Nuclear factor NF-kappa-B p105 subunit (Homo sapiens) (UniProt P19838).
T1 sequence (whole entry): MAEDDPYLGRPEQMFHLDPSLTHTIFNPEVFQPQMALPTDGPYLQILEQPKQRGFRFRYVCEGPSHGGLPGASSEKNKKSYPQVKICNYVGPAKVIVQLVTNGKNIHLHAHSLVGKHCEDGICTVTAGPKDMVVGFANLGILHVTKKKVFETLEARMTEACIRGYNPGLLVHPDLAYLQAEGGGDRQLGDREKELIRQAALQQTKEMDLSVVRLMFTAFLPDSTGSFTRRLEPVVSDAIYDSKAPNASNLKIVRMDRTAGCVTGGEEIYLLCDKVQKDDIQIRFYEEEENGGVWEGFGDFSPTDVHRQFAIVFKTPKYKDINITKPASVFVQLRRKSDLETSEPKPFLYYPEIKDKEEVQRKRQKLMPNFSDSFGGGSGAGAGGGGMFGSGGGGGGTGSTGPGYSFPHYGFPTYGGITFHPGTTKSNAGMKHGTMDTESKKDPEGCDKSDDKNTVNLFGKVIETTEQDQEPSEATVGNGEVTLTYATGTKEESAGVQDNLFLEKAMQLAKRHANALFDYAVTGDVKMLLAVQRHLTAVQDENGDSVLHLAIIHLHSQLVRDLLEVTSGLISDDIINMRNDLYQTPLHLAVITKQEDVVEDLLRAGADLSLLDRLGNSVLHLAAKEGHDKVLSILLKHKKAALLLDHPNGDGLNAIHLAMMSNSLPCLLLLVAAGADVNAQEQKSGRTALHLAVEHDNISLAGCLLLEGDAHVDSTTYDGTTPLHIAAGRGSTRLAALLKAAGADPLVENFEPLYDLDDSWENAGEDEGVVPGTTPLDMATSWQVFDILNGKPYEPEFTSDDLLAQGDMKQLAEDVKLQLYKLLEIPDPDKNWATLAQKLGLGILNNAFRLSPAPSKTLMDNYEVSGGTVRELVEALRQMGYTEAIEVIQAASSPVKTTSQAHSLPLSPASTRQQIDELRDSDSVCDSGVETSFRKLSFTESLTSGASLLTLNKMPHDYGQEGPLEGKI
Put plainly: inhibitory effect on the DNA binding of Nuclear factor kappa B; Active.

`Cc1cc(-c2ccc(/N=N/c3ccc4c(S(=O)(=O)O)cc(S(=O)(=O)O)c(N)c4c3O)c(C)c2)ccc1/N=N/c1ccc2c(S(=O)(=O)O)cc(S(=O)(=O)O)c(N)c2c1O`: the Concentration stood at 100 µM.

For the origin of these results see ChEMBL document CHEMBL1138732, “Evans Blue is an inhibitor of nuclear factor-kappa B (NF-kappaB)-DNA binding” (Bioorg Med Chem Lett, 2004).
